Molecular target: T1, bovine cerebral TPK1 (Bos taurus, UniProt A0A3Q1MT31)
T1 construct: from tissue; host or cells: bovine brain (cerebrum)
Assay: Inhibitory activity against P-GS1 phosphorylation by bovine cerebral TPK1
Type: biochemical
Conditions: 41.7 μM [γ-32P]ATP, 25° C., 2 hours, pH 6.5
Experimental: Inhibitory Activity of the Medicament of the Present Invention Against P-GS1 Phosphorylation by Bovine Cerebral TPK1
A mixture containing 100 mM MES-sodium hydroxide (pH 6.5), 1 mM magnesium acetate, 0.5 mM EGTA, 5 mM β-mercaptoethanol, 0.02% Tween 20, 10% glycerol, 12 μg/ml P-GS1, 41.7 μM [y-^32P] ATP (68 kBq/ml), bovine cerebral TPK1 and a compound shown in Table (a final mixture contained 1.7% DMSO deriving from a solution of a test compound prepared in the presence of 10% DMSO) was used as a reaction system. The phosphorylation was started by adding ATP, and the reaction was conducted at 25° C. for 2 hours, and then stopped by adding 21% perchloric acid on ice cooling. The reaction mixture was centrifuged at 12,000 rpm for 5 minutes and adsorbed on P81 paper (Whatmann), and then the paper was washed four times with 75 mM phosphoric acid, three times with water and once with acetone. The paper was dried, and the residual radioactivity was measured using a liquid scintillation counter. […] PHF formation, and that the medicaments of the present invention are effective for preventive and/or therapeutic treatment of Alzheimer disease and the above-mentioned diseases.

T1 sequence (A0A3Q1MT31 1-419): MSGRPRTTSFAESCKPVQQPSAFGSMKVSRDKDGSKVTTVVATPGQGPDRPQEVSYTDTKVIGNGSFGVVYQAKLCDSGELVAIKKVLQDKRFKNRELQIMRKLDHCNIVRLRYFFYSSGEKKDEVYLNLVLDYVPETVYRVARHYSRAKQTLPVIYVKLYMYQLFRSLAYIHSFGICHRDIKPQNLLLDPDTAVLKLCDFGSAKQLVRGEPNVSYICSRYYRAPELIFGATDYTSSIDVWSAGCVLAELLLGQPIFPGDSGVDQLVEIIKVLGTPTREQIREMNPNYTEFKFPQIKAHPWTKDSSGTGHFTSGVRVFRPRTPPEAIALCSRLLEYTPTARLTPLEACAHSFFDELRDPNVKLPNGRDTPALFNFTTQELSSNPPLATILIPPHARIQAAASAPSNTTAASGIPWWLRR

IC50 [nM] | SMILES
7.4 | Cn1c(N2CCOC(c3ccc(F)cc3O)C2)nc(-c2ccncn2)cc1=O (stereo not shown) [Compound B257]
30 | Cc1cccc(C(=O)CNc2nc(-c3ccncn3)cc(=O)n2C)c1 [Compound A130]
7.1 | Cn1c(N2CCO[C@@H](c3cc4ccccc4o3)C2)nc(-c2ccncn2)cc1=O [Compound B272]
0.821 | Cn1c(N2CCOC(c3cccc4c3OCC4)C2)nc(-c2ccncn2)cc1=O (stereo not shown) [Compound B237]
11 | Cn1c(NCC(=O)c2cccc(Cl)c2)nc(-c2ccncn2)cc1=O [Compound A124]
11 | Cn1c(N2CCOC(c3ccc(F)cc3)C2)nc(-c2ccncn2)cc1=O (stereo not shown) [Compound B030]
38 | Cn1c(N2CCOC(C(=O)c3ccccc3)C2)nc(-c2ccncn2)cc1=O (single isomer, unassigned) [Compound C789]
0.77 | COc1cc(N2CCCC2)ccc1C1CN(c2nc(-c3ccncn3)cc(=O)n2C)CCO1 (stereo not shown) [Compound B260]
12 | Cn1c(N2CCOC(c3nc4ccccc4s3)C2)nc(-c2ccncn2)cc1=O (stereo not shown) [Compound B225]
1.4 | COc1ccc(-c2ccccc2F)cc1C1CN(c2nc(-c3ccncn3)cc(=O)n2C)CCO1 (stereo not shown) [Compound B261]
4.8 | Cn1c(N2CCOC(c3cccc(N4CCCC4)c3)C2)nc(-c2ccncn2)cc1=O (single isomer, unassigned) [Compound B276]
4.6 | CC(C)Oc1cc(F)ccc1C1CN(c2nc(-c3ccncn3)cc(=O)n2C)CCO1 (stereo not shown) [Compound B241]
1.2 | COc1ccc(N2CCCC2)cc1C1CN(c2nc(-c3ccncn3)cc(=O)n2C)CCO1 (stereo not shown) [Compound B259]
0.17 | COc1cc(F)cc(OC)c1[C@H]1CN(c2nc(-c3ccncn3)cc(=O)n2C)CCO1 [Compound B244]
4.2 | Cn1c(N2CCO[C@@H](c3cccc4c3OCC4)C2)nc(-c2ccncn2)cc1=O [Compound B243]
4.2 | Cn1c(N2CCOC(c3cc4ccccc4o3)C2)nc(-c2ccncn2)cc1=O (stereo not shown) [Compound B271]
13 | COc1ccc(-c2ccc(Cl)cc2Cl)cc1C1CN(c2nc(-c3ccncn3)cc(=O)n2C)CCO1 (stereo not shown) [Compound B263]
0.6 | COc1ccc(CN2CCCC2)cc1C1CN(c2nc(-c3ccncn3)cc(=O)n2C)CCO1 (stereo not shown) [Compound B264]
4.6 | COc1cccc([C@H]2CN(c3nc(-c4ccncn4)cc(=O)n3C)CCO2)c1 [Compound B082]
1.4 | COc1cc(-c2ccccc2F)ccc1C1CN(c2nc(-c3ccncn3)cc(=O)n2C)CCO1 (stereo not shown) [Compound B277]
26 | Cn1c(N2CCOC3(CCCOc4ccccc43)C2)nc(-c2ccncn2)cc1=O (stereo not shown) [Compound B285]
1.3 | COc1cccc(-c2ccc(OC)c(C3CN(c4nc(-c5ccncn5)cc(=O)n4C)CCO3)c2)c1 (stereo not shown) [Compound B262]
2.4 | Cn1c(N2CCOC(c3noc4ccccc34)C2)nc(-c2ccncn2)cc1=O (stereo not shown) [Compound B251]
1.1 | Cn1c(N2CCC(C(=O)c3ccc(Cl)cc3)CC2)nc(-c2ccncn2)cc1=O [Compound D034, 2-[4-(4-Chlorobenzoyl)piperidin-1-yl]-3-methyl-6-pyrimidin-4-yl-3H-pyrimidin-4-one]

IC50 [nM] | SMILES
6.9 | Cn1c(N2CCOC(c3cc4cc(F)ccc4n3C)C2)nc(-c2ccncn2)cc1=O (stereo not shown) [Compound B242]
3.7 | Cn1c(N2CCOC(c3ccc(N4CCCC4)cc3)C2)nc(-c2ccncn2)cc1=O (stereo not shown) [Compound B140]
19 | Cn1c(NCC(=O)c2cccc(F)c2)nc(-c2ccncn2)cc1=O [Compound A121]
7 | Cn1c(N2CCOC(c3cccc(N4CCCC4)c3)C2)nc(-c2ccncn2)cc1=O (single isomer, unassigned) [Compound B275]
1.2 | COc1cc(-c2ccc(F)cc2)ccc1C1CN(c2nc(-c3ccncn3)cc(=O)n2C)CCO1 (stereo not shown) [Compound B279]
26.1 | COc1ccc(C2CN(c3nc(-c4ccncn4)cc(=O)n3C)CC(C)(C)O2)cc1 (stereo not shown) [Compound B217]
4.5 | COc1cccc(OC)c1[C@@H]1CN(c2nc(-c3ccncn3)cc(=O)n2C)CCO1 [Compound B104]
0.83 | COc1cc(Cl)ccc1C1CN(c2nc(-c3ccncn3)cc(=O)n2C)CCO1 (stereo not shown) [Compound B249]
1 | Cn1c(N2CCO[C@@H](c3noc4ccccc34)C2)nc(-c2ccncn2)cc1=O [Compound B252]
3.5 | Cn1c(N2CCOC(c3ccc(F)cc3Cl)C2)nc(-c2ccncn2)cc1=O (stereo not shown) [Compound B240]
1.9 | COc1ncc(-c2ccc(OC)c(C3CN(c4nc(-c5ccncn5)cc(=O)n4C)CCO3)c2)c(OC)n1 (stereo not shown) [Compound B283]
0.56 | COc1cc(F)cc(F)c1C1CN(c2nc(-c3ccncn3)cc(=O)n2C)CCO1 (stereo not shown) [Compound B250]
2.1 | Cn1c(N2CCOC(c3ccc(CN4CCCC4)cc3)C2)nc(-c2ccncn2)cc1=O (stereo not shown) [Compound B112]
0.64 | Cn1c(N2CCOC(C(=O)c3ccccc3)C2)nc(-c2ccncn2)cc1=O (single isomer, unassigned) [Compound C790]
4.3 | COc1cccc2cc(C3CN(c4nc(-c5ccncn5)cc(=O)n4C)CCO3)oc12 (stereo not shown) [Compound B273]
0.7 | COc1cc(C#N)ccc1C1CN(c2nc(-c3ccncn3)cc(=O)n2C)CCO1 (stereo not shown) [Compound B253]
1.1 | Cn1c(N2CCCC(C(=O)c3ccccc3)C2)nc(-c2ccncn2)cc1=O (stereo not shown) [Compound C401]
3 | Cn1c(N2CCO[C@@H](c3ccccc3F)C2)nc(-c2ccncn2)cc1=O [Compound B037]
1.7 | COc1ccc(-c2ccc(OC)c(C3CN(c4nc(-c5ccncn5)cc(=O)n4C)CCO3)c2)cc1 (stereo not shown) [Compound B268]
32 | Cn1c(N2CCO[C@H](c3ccc(F)cc3)C2)nc(-c2ccncn2)cc1=O [Compound B032]
0.78 | COc1ccc(C#N)cc1C1CN(c2nc(-c3ccncn3)cc(=O)n2C)CCO1 (stereo not shown) [Compound B248]
5 | Cn1c(N2CCO[C@@H](c3ccc(F)cc3)C2)nc(-c2ccncn2)cc1=O [Compound B031, (S)-2-[2-(4-fluorophenyl)morpholin-4-yl]-3-methyl-6-pyrimidin-4-yl-3H-pyrimidin-4-one]
23 | Cn1c(N2CCOC(c3ccccc3OCC3CC3)C2)nc(-c2ccncn2)cc1=O (stereo not shown) [Compound B126]
0.57 | COc1ccc(-c2cccc(CN3CCCC3)c2)cc1C1CN(c2nc(-c3ccncn3)cc(=O)n2C)CCO1 (stereo not shown) [Compound B274]

IC50 [nM] | SMILES
0.27 | Cn1c(N2CCOC(c3c(Cl)cccc3Cl)C2)nc(-c2ccncn2)cc1=O (stereo not shown) [Compound B105]
1.4 | COc1cc(-c2ccccc2)ccc1C1CN(c2nc(-c3ccncn3)cc(=O)n2C)CCO1 (stereo not shown) [Compound B258]
1.6 | COc1ccc(-c2cccc(F)c2)cc1C1CN(c2nc(-c3ccncn3)cc(=O)n2C)CCO1 (stereo not shown) [Compound B266]
0.24 | COc1cc(F)cc(F)c1[C@H]1CN(c2nc(-c3ccncn3)cc(=O)n2C)CCO1 [Compound B254]
0.6 | COc1ccc(-c2ccccn2)cc1C1CN(c2nc(-c3ccncn3)cc(=O)n2C)CCO1 (stereo not shown) [Compound B280]
11 | Cn1c(N2CCOC3(CCOc4ccccc43)C2)nc(-c2ccncn2)cc1=O (stereo not shown) [Compound B284]
0.23 | COc1cccc(OC)c1[C@H]1CN(c2nc(-c3ccncn3)cc(=O)n2C)CCO1 [Compound B103]
0.74 | Cn1c(N2CCOC(c3c(F)cccc3Cl)C2)nc(-c2ccncn2)cc1=O (stereo not shown) [Compound B239]
27 | Cn1c(N2CCOC(c3ccc(F)cc3OCc3ccccc3)C2)nc(-c2ccncn2)cc1=O (stereo not shown) [Compound B270]
24 | Cn1c(NCC(=O)c2ccccc2)nc(-c2ccncn2)cc1=O [Compound A119]
4.6 | COc1ccc(-c2ccc(F)cc2)cc1C1CN(c2nc(-c3ccncn3)cc(=O)n2C)CCO1 (stereo not shown) [Compound B255]
2.9 | COc1ccc([C@H]2CN(c3nc(-c4ccncn4)cc(=O)n3C)CCO2)cc1 [Compound B079, (S)-2-[2-(4-Methoxyphenyl)morpholin-4-yl]-3-methyl-6-pyrimidin-4-yl-3H-pyrimidin-4-one]
0.441 | COc1cccc(OC)c1C1CN(c2nc(-c3ccncn3)cc(=O)n2C)CCO1 (stereo not shown) [Compound B102]
0.56 | Cn1c(N2CCOC(C(=O)c3ccccc3)C2)nc(-c2ccncn2)cc1=O (stereo not shown) [Compound C501]
1.1 | COc1cc(C)c(C)cc1C1CN(c2nc(-c3ccncn3)cc(=O)n2C)CCO1 (stereo not shown) [Compound B246]
1.2 | COc1ccccc1-c1ccc(OC)c(C2CN(c3nc(-c4ccncn4)cc(=O)n3C)CCO2)c1 (stereo not shown) [Compound B267]
15 | Cn1c(N2CCOC(c3ccc(F)cc3OCC3CC3)C2)nc(-c2ccncn2)cc1=O (stereo not shown) [Compound B247]
0.84 | COc1cccc(-c2ccc(OC)c(C3CN(c4nc(-c5ccncn5)cc(=O)n4C)CCO3)c2)n1 (stereo not shown) [Compound B281]
0.47 | COc1cc(F)ccc1[C@H]1CN(c2nc(-c3ccncn3)cc(=O)n2C)CCO1 [Compound B238]
1.1 | COc1cc(-c2cccc(F)c2)ccc1C1CN(c2nc(-c3ccncn3)cc(=O)n2C)CCO1 (stereo not shown) [Compound B278]
1.2 | COc1ccccc1C1CN(c2nc(-c3ccncn3)cc(=O)n2C)CCO1 (stereo not shown) [Compound B084]
1.3 | COc1cc(F)cc(OC)c1[C@@H]1CN(c2nc(-c3ccncn3)cc(=O)n2C)CCO1 [Compound B245]

Reference: patent US7572793B2, “3-Substituted-4-pyrimidone derivatives” (Mitsubishi Tanabe Pharma Corporation, priority 2001, dated 2009)
